# Measured values: patent publication US10463709B2, “Short synthetic peptide for treating diseases and/or conditions related to angiogenesis” (MacKay Memorial Hospital, priority 2015, dated 2019)
# Entries after “also recorded” stand apart in the source; their conditions may differ. Ends that are not written are not given here.
# Tests used:
# B16-F10 melanoma cells = experiment: Experimental pulmonary metastasis in mice; format: in vivo, C57BL/6 mice
# Summary of the method: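 Female C57BL/6 mice (6 weeks) received 2×10^5 B16-F10 cells i.v. via tail vein. Peptide, control peptide (10 mg/kg) or DMSO vehicle given i.p. every 2 days, 5 mice per group. Visible surface lung colonies counted under a dissecting microscope on day 8.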
# [1] = system: human uterine sarcoma cells (MES-SA/Dx5); experiment: Tumorigenicity assay, xenografted human uterine sarcoma; format: in vivo, nude mice; settings: 10 mg/kg intraperitoneal every 2 days for 10 days
# Experimental: MES-SA/Dx5 cells (5×10^6 cells in 0.1 ml) were implanted by subcutaneous injections in the right flank region of female nude mice (n=24, each animal weighted about 20 g before the assay began). The experiments were approved by the Mackay Memorial Hospital Review Board for animal investigation. Treatment was initiated in animals when the tumor volume was above 80 mm^3. Vehicle DMSO, the present synthetic peptide or the control peptide (10 mg/kg) was administered by intraperitoneal injections every 2 days. Tumor progression was monitored for 10 days; size of the tumor was measured every 3 to 5 days with a caliper and the volume was calculated using the following formula: ½×length×width^2.
# To this purpose, human uterine sarcoma cells (MES-SA/Dx5) were implanted in nude mice to induce tumor formation, and when the volume of each tumor reached 80 mm^3, animals were then treated with vehicle alone, or the 7-mer peptide at the dose of 10 mg/kg, every 2 days for 10 days. Results are depicted in FIG. 9.
# [2] = system: VEGF-induced corneal neovascularization; experiment: Mouse corneal angiogenesis assay; format: in vivo, C57BL/6 mice; settings: VEGF 200 ng; peptide 2.5 μg in micropellet
# Experimental: Briefly, corneal micropockets were created on 6-week-old C57BL/6 mice by use of a needle. A micropellet of sucrose aluminum sulfate and hydron polymer containing 200 ng VEGF with or without 2.5 μg peptide was plated into each corneal pocket. Eyes were then photographed by a slit-lamp biomicroscope on day 7 after micropellet implantation. Ingrowth of the blood vessels into avascular cornea toward pellet was scored as positive response. The results were reported as positive corneas of total implant.
# HUVECs [3] = experiment: Apoptosis assay (annexin V-FITC); format: cell-based; settings: treatment for 16 hrs; annexin V-FITC staining
# Experimental: The percentage of apoptotic HUVEC cells was assayed using TACS annexin V-FITC kit. The percentage of annexin V-positive cells was determined using in situ staining according to the manufacturer's instruction. The cell number was determined by counterstaining with Hoechst 33342. The nuclei in ten randomly selected fields of the three different chambers (˜7200 cells) were counted. Specimens were examined and photographed on a Zeiss epifluorescence microscope (×100, 10 fields/sample). Pictures were recorded on Zeiss software.
# HUVECs [4] = experiment: Endothelial cell capillary-like tube formation assay; format: cell-based
# diabetic rats = experiment: Vascular abnormalities in the retina of diabetic rats; format: in vivo, Sprague-Dawley rats; settings: intravitreal injection
# Experimental: Diabetes was induced in male Sprague-Dawley rats after fasting overnight by a single intraperitoneal injection of STZ (65 mg/kg body weight). STZ was freshly prepared in 0.1 M citrate buffer (pH 4.5). Rats with blood glucose levels >350 mg/dl for 5 days after receiving STZ were considered to be in diabetic status and were termed diabetic rats hereinafter. Blood glucose levels were checked every 2 days a blood glucose monitor. Animals that served as non-diabetic controls received an equivalent amount of citrate buffer alone. For peptide treatment, diabetic rats were anesthetized by an intraperitoneal injection of a Xylazine (10 mg/kg), and then intravitreally injected with 3 μl of the present synthetic peptide (10 mM) into one eye and an equal volume of PBS was injected into the contralateral eye (n=3-6 per group). After peptide treatment for 24 h, measurement of retinal vascular leakage by BSA-FITC (100 mg/kg body weight) was conducted in according to procedures described above.
# RPMI8226 cells = experiment: MTT assay, VEGF-induced proliferation of RPMI8226 cells; format: cell-based
# Summary of the method: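 After 24 h serum starvation, cells seeded at 3×10^5/well and cultured 24 h in serum-free RPMI1640 with 25 μM peptide, VEGF serving as proliferation stimulus. Viability by MTT (4 h, 37° C), DMSO solubilisation 20 min, absorbance at 570 nm.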
substance,measurement,setting,value
"NH2-Asp-Leu-Tyr-Arg-Val-Arg-Ser-COOH (DLYRVRS; not fully specified (N-terminus, C-terminus); printed as NH2-Asp-Leu-Tyr-Arg-Val-Arg-Ser-COOH) [7-mer]",effect on number of colonies on the surface of the lung / in vivo metastasis,B16-F10 melanoma cells; 10 mg/Kg intraperitoneal every 2 days,capable of reducing the number of colonies; also recorded: may suppress in vivo metastasis
same,No. lung colonies,"B16-F10 melanoma cells; 10 mg/Kg intraperitoneal every 2 days, day 8, n = 5",72 ± 16.0
same,Inhibition (%),"B16-F10 melanoma cells; lung colonies vs vehicle, 10 mg/Kg",67.9%
same,tumor volume,[1],125±15.4 mm^3
same,VEGF-induced neovascularization in the cornea,[2],completely abolished
same,percentage of apoptotic HUVECs,HUVECs [3],32.4±3.8%
same,effect on VEGF-induced tube formation,"HUVECs [4]; HUVECs, VEGF, 6 hrs",inhibited
same,Tube length (Fold),"HUVECs [4]; VEGF (10 ng/mL) + 25 μM peptide, vs untreated HUVECs",1.24 ± 0.23 Fold
same,levels of leaked FITC-BSA in entire retina vs vehicle,diabetic rats,0.43±0.07 fold
same,number of vascular lesion in retina,diabetic rats; 24 h,9.2±2.15
same,dose dependence of inhibitory action on VEGF-induced cell proliferation,"RPMI8226 cells; 1 to 25 μM, RPMI8226 cells",dose dependent manner
same,effect on VEGF-induced proliferation of RPMI8226 cells,"RPMI8226 cells; VEGF 50 ng/ml, 25 μM peptide, 24 hrs, MTT",suppressed
